pEC50: −log10 of the molar value.
Tests used:
VDR = target: T1, VDR (Homo sapiens, UniProt P11473); test: Translocation of VDR to the nucleus, imaging flow cytometry in HaCaT; type: cell-based; conditions: 10^–7 M, 12 h
T1 construct: endogenous in cells; host or cells: HaCaT keratinocytes
T1 sequence (P11473 1-427): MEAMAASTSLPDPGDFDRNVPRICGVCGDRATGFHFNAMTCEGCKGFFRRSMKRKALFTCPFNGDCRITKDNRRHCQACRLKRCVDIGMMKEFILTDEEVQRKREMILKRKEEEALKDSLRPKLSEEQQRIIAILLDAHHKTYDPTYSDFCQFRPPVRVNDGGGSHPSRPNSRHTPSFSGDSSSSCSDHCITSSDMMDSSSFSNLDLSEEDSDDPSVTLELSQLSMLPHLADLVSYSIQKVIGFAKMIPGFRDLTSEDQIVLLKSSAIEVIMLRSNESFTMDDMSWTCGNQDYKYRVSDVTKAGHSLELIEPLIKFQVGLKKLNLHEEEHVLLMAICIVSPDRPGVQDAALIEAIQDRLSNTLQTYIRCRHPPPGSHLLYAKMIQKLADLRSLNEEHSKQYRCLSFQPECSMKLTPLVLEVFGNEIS

LBD of LXRβ = target: T2, LBD of LXRβ (Homo sapiens, UniProt P55055); test: LanthaScreen TR-FRET LXRβ coactivator assay (LXR binding assay); type: biochemical; conditions: agonist; average values; read-out: LXRβ EC50
T2 construct: purchased Thermo Fisher Scientific
T2 sequence (P55055 222-460 limits assumed): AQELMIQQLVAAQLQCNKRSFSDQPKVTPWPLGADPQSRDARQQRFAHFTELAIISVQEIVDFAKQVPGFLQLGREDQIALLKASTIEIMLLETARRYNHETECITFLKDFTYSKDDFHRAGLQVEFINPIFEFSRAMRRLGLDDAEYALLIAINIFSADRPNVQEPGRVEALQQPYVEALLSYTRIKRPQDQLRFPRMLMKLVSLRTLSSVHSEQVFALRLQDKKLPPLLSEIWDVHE
Description: (§1) Binding assays of graded concentrations of vitamin D3 or lumisterol hydroxyderivatives to LXRα/β were performed using the LanthaScreen TR-FRET LXRα/β Coactivator kit (Thermo Fisher Scientific, Inc., Waltham, MA) following the manufacture’s protocol. Briefly, after addition of LXRα/β-LBD to the derivatives, a mixture of peptide (Fluorescein-TRAP220/DRIP-2 for LXRα or Fluorescein-D22 for LXRβ) and antibody (Tb-anti-GST) was added to the reaction followed by incubation in room temperature for 2 h. TR-FRET ratio was calculated by dividing the emission at 520 nm by the emission at 495 nm using Synergy neo2 (BioTek, Winooski, VT).

genes downstream of LXR = test: qPCR of genes downstream of LXR in murine dermal fibroblasts; type: cell-based, mouse; conditions: 10^–7 M, 24 h
Description: All animal studies followed guidelines outlined by the NIH Guide for the Care and Use of Laboratory Animals and protocols were approved by the Institutional Animal Care and Use Committee at the NIEHS or the UAB. The study was carried out in compliance with the ARRIVE guidelines (http://www.nc3rs.org.uk/page.asp?id=1357). Skin samples from newborn C57BL/6 mice were collected at the NIEHS. Dermal fibroblasts were isolated from the skin of newborn mice, 1–2 day old. Briefly, we followed the protocols described previously. The skin was washed in PBS, cut into smaller pieces and incubated in 2.4 U/ml of dispase II (Roche) overnight at 4 °C. The dermis was separated from the epidermis and incubated in 0.1% collagenase (Roche) at 4 °C overnight. Next day, it was cut into smaller pieces and incubated for 1 h in 0.25% Trypsin (CellGrow) at 37 °C. Single cell suspension was prepared by pipetting and draining through a cell strainer. After centrifugation, cell pellets were suspended in DMEM medium containing 10% charcoal-stripped fetal bovine serum (cFBS), mouse fibroblasts growth factor (FGF) and 1% antibiotic, and inoculated into tissue culture dishes (Midwest Scientific, TPP). Cells, in early passages, from different mice were pooled together to provide representative samples for experiments. Fibroblasts were cultured in Petri dishes (10 cm in diameter) in DMEM and 10% cFBS and triplicate semi-confluent cultures were treated as described.
RNA isolated from either fibroblasts, HaCaT cells or brain was submitted for cDNA synthesis (High Capacity cDNA Reverse Transcription Kit with RNase Inhibitor, Applied Biosystems) following the manufacturers’ protocols. RT-PCR was carried out using Cyber green, in triplicates; as previously described. Approximately, 750 ng of cDNA was used for PCR reactions. GAPDH and CIC-B were used as internal controls. Primer sequences are listed in Supplementary Table 27. Data were analyzed using GraphPad Prism statistical software one way ANOVA or t-test, where appropriate; *p < 0.05; **p < 0.01; ***p < 0.001.

LXRα/β = test: Ligand induced translocation of LXRα/β to the nucleus, imaging flow cytometry in HaCaT; type: cell-based, human; conditions: 10^–7 M, 12 h
Description: (§2) HaCaT cells were plated in DMEM plus 5% cFBS either on a sterile glass cover slip placed in a well of a 6-well plates for immunofluorescence (IF) assays or TPP Petri dishes for image-stream flow cytometry, and treated with 10^–7 M D3- or L3-hydroxyderivatives or 0.1% ethanol (vehicle) as a negative control was added to each well, and the cells were incubated for 12 or 24 h at 37 °C with 5% CO2. For IF the cells were fixed in 4% paraformaldehyde for 15 min, incubated in 0.5% Triton X-100 in phosphate-buffered saline (PBS) for 5 min, and washed 3 times in PBS. After blocking with 2% bovine serum albumin (BSA) in PBS for 1 h at room temperature, the cells were treated with an anti-LXRα antibody (Novus Biologicals, LLC, Centennial, CO) at 1:200 in PBS supplemented with 2% BSA overnight in 4 °C. After washing the slides were incubated with a mouse anti-rabbit IgG-FITC (Santa Cruz Biotechnology, Inc, Dallas, TX) at 1:200 dilution for 1.5 h at 37 °C. After washing the slides were mounted using propidium iodide (PI) (Vector Labs, Burlingame, California) as a nuclear counterstain. The slides were examined using a KEYENCE America BZ-X710 Fluorescence Microscope (Itasca, IL). The images were subsequently analyzed using the JACoP plugin for colocalization analysis with ImageJ[74]. Five separate high-power field (40×) images were converted to grayscale and analyzed for each condition. Manders’ coefficient (M1), calculated using a preset threshold, was used to quantify the degree of colocalization between PI and LXRα with 0 representing no colocalization, and 1 representing perfect colocalization.
For Image Stream II (Amnis, Seattle, WA, USA) cytometer analyses, HaCaT cells were detached and processed as previously described. The cells were fixed with paraformaldehyde and permeabilized in methanol containing buffer[78],[79] and Hoechst stain (r37165, ThermoFisher) and rabbit antibodies to LXRα/β (sc 377260, AF 647, SantaCruz) or VDR (sc-13133, AF 488, SantaCruz) as described previously. Data were analyzed using IDEAS software (Amnis, Seattle, WA, USA).

LXRα = target: T3, LXRα (Homo sapiens, UniProt Q13133); test: Ligand induced translocation of LXRα to the nucleus, immunofluorescence in HaCaT; type: cell-based; conditions: 10^−7 M, 24 h
T3 construct: endogenous in cells; host or cells: HaCaT keratinocytes
T3 sequence (Q13133 1-447): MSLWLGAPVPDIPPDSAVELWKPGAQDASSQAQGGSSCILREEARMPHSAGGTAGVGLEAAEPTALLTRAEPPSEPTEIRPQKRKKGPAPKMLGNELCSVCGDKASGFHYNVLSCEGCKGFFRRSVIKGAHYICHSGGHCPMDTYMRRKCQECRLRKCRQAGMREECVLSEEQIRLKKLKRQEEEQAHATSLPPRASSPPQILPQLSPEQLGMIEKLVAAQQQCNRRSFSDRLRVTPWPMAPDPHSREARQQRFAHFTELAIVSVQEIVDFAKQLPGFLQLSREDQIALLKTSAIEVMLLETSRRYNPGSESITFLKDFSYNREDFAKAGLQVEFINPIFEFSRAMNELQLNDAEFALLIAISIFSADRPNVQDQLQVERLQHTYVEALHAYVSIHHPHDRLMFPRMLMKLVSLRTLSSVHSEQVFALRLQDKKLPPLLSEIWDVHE
Description: as §2

[1] = system: LXR-response element (LXRE)-driven reporter in CHO cells; test: LXRE-driven luciferase reporter assay in CHO cells; type: cell-based; conditions: 10^–7 M, CHO and HaCaT cells (Fig. 4C)
Description: The effects of vitamin D3 and L3 hydroxyderivatives were tested on the LXRE transcriptional activity using pGreenFire1-LXRE-in-ApoE Lentivirus (System Biosciences, Palo Alto, CA). This plasmid was transduced in CHO and HaCaT cells following the manufacture’s protocol and the cells used as a stable LXRE expressed tool. Briefly, the virus was transduced into the cells using TransDux MAX Lentivirus Transduction Enhancer (System Biosciences, Palo Alto, CA) and screened to select the transduced cells using puromycin. The transduced cells were treated with the compounds for 24 h in media containing 5% cFBS (charcoal-treated fetal bovine serum) and the luminescence was read by ONE-Glo Luciferase Assay System (Promega, Madison, WI) using Cytation 5 (BioTek, Winooski, VT).

LBD of LXRα = target: T4, LBD of LXRα (Homo sapiens, UniProt Q13133); test: LanthaScreen TR-FRET LXRα coactivator assay (LXR binding assay); type: biochemical; conditions: agonist; average values; read-out: LXRα EC50
T4 construct: after addition of LXRα/β-LBD to the derivatives; purchased Thermo Fisher Scientific
T4 sequence (Q13133 209-447 limits assumed): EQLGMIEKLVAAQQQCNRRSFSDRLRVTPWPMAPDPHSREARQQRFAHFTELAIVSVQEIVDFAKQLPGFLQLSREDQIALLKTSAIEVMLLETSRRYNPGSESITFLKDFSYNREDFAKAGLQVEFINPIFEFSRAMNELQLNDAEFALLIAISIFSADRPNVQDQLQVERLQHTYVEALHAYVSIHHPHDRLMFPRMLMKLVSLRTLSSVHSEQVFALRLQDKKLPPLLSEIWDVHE
Description: as §1

| SMILES | translocation of VDR from the cytoplasm to the nucleus (VDR) | pEC50 (LBD of LXRβ) | Cyp7a1 expression (genes downstream of LXR) | translocation of LXRα to the nucleus (immunofluorescence, Manders' coefficient) (LXRα) | pEC50 (LBD of LXRα) | ApoE (apolipoprotein E) expression (genes downstream of LXR) | translocation of LXRα/β from the cytoplasm to the nucleus (LXRα/β) | also measured |
| --- | --- | --- | --- | --- | --- | --- | --- | --- |
| C=C1C(=CC=C2CCCC3(C)C2CCC3C(C)(O)CCC(O)C(C)C)CC(O)CC1O (stereo not shown) [1,20,24(OH)3D3] |  |  |  |  |  |  |  | LXRE luciferase (transcriptional) activity [1]: strongest stimulatory effects |
| CC(C)CCC[C@](C)(O)[C@H]1CC[C@H]2C3=CC=C4C[C@@H](O)CC[C@]4(C)[C@H]3CC[C@@]21C [20(OH)7DHC, reference compound] |  |  | inhibited |  |  | inhibited |  | Abcg5 expression (genes downstream of LXR): stimulated; Abcg8 expression (genes downstream of LXR): inhibited; Fas (fatty acid synthase) expression (genes downstream of LXR): stimulated |
| C=C1CC[C@H](O)C/C1=C/C=C1\CCC[C@@]2(C)[C@H]1CC[C@@H]2[C@@](C)(O)CCCC(C)(C)O [20,25(OH)2D3] |  | 5.68 |  |  | 6.46 |  |  |  |

Further compounds by rising pEC50 (LBD of LXRβ), results first:

| translocation of VDR from the cytoplasm to the nucleus (VDR) | pEC50 (LBD of LXRβ) | Cyp7a1 expression (genes downstream of LXR) | translocation of LXRα to the nucleus (immunofluorescence, Manders' coefficient) (LXRα) | pEC50 (LBD of LXRα) | SMILES | ApoE (apolipoprotein E) expression (genes downstream of LXR) | translocation of LXRα/β from the cytoplasm to the nucleus (LXRα/β) | also measured |
| --- | --- | --- | --- | --- | --- | --- | --- | --- |
| increased translocation | 5.70 |  | induced translocation | 5.82 | CC(C)CCC(O)C(C)(O)C1CCC2C3=CC=C4CC(O)CCC4(C)C3CCC21C (stereo not shown) [20,22(OH)2L3] |  | increased translocation |  |
| increased translocation | 6.57 | inhibited | induced translocation |  | C=C1/C(=C\C=C2/CCC[C@@]3(C)[C@H]2CC[C@@H]3[C@@](C)(O)CCCC(C)C)C[C@@H](O)C[C@@H]1O [1,20(OH)2D3] | enhanced | increased translocation |  |
| increased translocation | 7.68 | inhibited | induced translocation | 5.74 | CC(C)CCC[C@](C)(O)[C@H]1CC[C@H]2C3=CC=C4C[C@@H](O)CC[C@@]4(C)[C@@H]3CC[C@@]21C [20(OH)L3] | inhibited | increased translocation | Abca1 expression (genes downstream of LXR): inhibited; Abcg8 expression (genes downstream of LXR): inhibited; Lpl (lipoprotein lipase) expression (genes downstream of LXR): inhibited |
|  | 8.42 |  |  |  | C=C1C(=CC=C2CCCC3(C)C2CCC3C(C)(O)CCCC(C)(C)O)CC(O)CC1O (stereo not shown) [1,20,25(OH)3D3] |  |  | LXRE luciferase (transcriptional) activity [1]: strongest stimulatory effects |
